Like-named read-outs stand apart in the source and are kept apart here.
How the values were obtained:
Escherichia coli = assay: MIC, micro-dilution broth method (CLSI); type: cell-based
Aqueous solubility limit = type: physicochemical; conditions: cation-adjusted Mueller Hinton broth (MIC assay medium); limit to which compounds were tested in MIC assays
E. coli AR0349 [1] = assay: Acute pneumonia bacterial burden model; type: in vivo, CD-1 mice; conditions: 100 mg/kg IP twice a day for 3 days, lungs, 72 h post-infection
E. coli AR0349 [2] = assay: Bacterial sepsis survival model; type: in vivo, CD-1 mice; conditions: 100 mg/kg IP twice daily for 3 days

Fc1ccc(COc2cccc(-c3n[nH]cc3-c3ccncc3)c2)cc1 [Compound 2, 4-(3-(3-((4-fluorobenzyl)oxy)phenyl)-1H-pyrazol-4-yl)pyridine]
16 µg/mL: MIC (Escherichia coli; Escherichia coli, E. coli AR0081, read-out: MIC) | MIC (Escherichia coli; Escherichia coli, E. coli AR0104, read-out: MIC) | MIC (Escherichia coli; Escherichia coli, E. coli AR0118, read-out: MIC) | MIC (Escherichia coli; Escherichia coli, E. coli AR0128, read-out: MIC) | MIC (Escherichia coli; Escherichia coli, E. coli AR0137, read-out: MIC) | MIC (Escherichia coli; Escherichia coli, E. coli AR0150, read-out: MIC)
> 32 µg/mL: MIC (Escherichia coli; Escherichia coli, ATCCBAA2340, E. coli ATCC BAA-2340, read-out: MIC) | MIC (Escherichia coli; Escherichia coli, ATCCBAA2469, E. coli ATCC BAA-2469, read-out: MIC) | MIC (Escherichia coli; Escherichia coli, ATCCBAA2471, E. coli ATCC BAA-2471, read-out: MIC) | MIC (Escherichia coli; Escherichia coli, E. coli AR0048, read-out: MIC) | MIC (Escherichia coli; Escherichia coli, E. coli AR0055, read-out: MIC) | MIC (Escherichia coli; Escherichia coli, E. coli AR0058, read-out: MIC) | MIC (Escherichia coli; Escherichia coli, E. coli AR0061, read-out: MIC) | MIC (Escherichia coli; Escherichia coli, E. coli AR0067, read-out: MIC) | MIC (Escherichia coli; Escherichia coli, E. coli AR0069, read-out: MIC) | MIC (Escherichia coli; Escherichia coli, E. coli AR0084, read-out: MIC) | MIC (Escherichia coli; Escherichia coli, E. coli AR0085, read-out: MIC) | MIC (Escherichia coli; Escherichia coli, E. coli AR0089, read-out: MIC) | MIC (Escherichia coli; Escherichia coli, E. coli AR0114, read-out: MIC) | MIC (Escherichia coli; Escherichia coli, E. coli AR0119, read-out: MIC) | MIC (Escherichia coli; Escherichia coli, E. coli AR0149, read-out: MIC) | MIC (Escherichia coli; Escherichia coli, E. coli AR0151, read-out: MIC) | MIC (Escherichia coli; Escherichia coli, E. coli AR0162, read-out: MIC) | MIC (Escherichia coli; Escherichia coli, E. coli AR0346, read-out: MIC) | MIC (Escherichia coli; Escherichia coli, E. coli AR0348, read-out: MIC) | MIC (Escherichia coli; Escherichia coli, E. coli AR0350, read-out: MIC) | MIC (Escherichia coli; Escherichia coli, E. coli AR0493, read-out: MIC) | MIC (Escherichia coli; Escherichia coli, E. coli AR0494, read-out: MIC) | MIC (Escherichia coli; Escherichia coli, E. coli AR0495, read-out: MIC) | MIC (Escherichia coli; Escherichia coli, E. coli AR0541, read-out: MIC) | MIC (Escherichia coli; Escherichia coli, E. coli AR0543, read-out: MIC) | MIC (Escherichia coli; Escherichia coli, E. coli AR0546, read-out: MIC) | MIC (Escherichia coli; Escherichia coli, E. coli AR0551, read-out: MIC) | MIC (Escherichia coli; Escherichia coli, E. coli AR0559, read-out: MIC) | MIC (Escherichia coli; Escherichia coli, E. coli AR-0349 (colistin-resistant clinical isolate), read-out: MIC) | MIC (Escherichia coli; Escherichia coli, E. coli AR-0549, read-out: MIC) | MIC (Escherichia coli; Escherichia coli, E. coli ELZ 4004, read-out: MIC) | MIC (Escherichia coli; Escherichia coli, E. coli ELZ 4042, read-out: MIC) | MIC (Escherichia coli; Escherichia coli, E. coli ELZ 4139, read-out: MIC) | MIC (Escherichia coli; Escherichia coli, E. coli ELZ 4239, read-out: MIC) | MIC (Escherichia coli; Escherichia coli, E. coli ELZ 4277, read-out: MIC) | MIC (Escherichia coli; Escherichia coli, E. coli ELZ 4346, read-out: MIC)
0.06 µg/mL: MIC (Escherichia coli; Escherichia coli, E. coli ΔtolC JW5503 (efflux-deficient))
4 µg/mL: MIC (Escherichia coli; Escherichia coli, E. coli ELZ 4081, read-out: MIC)
8 µg/mL: MIC (Escherichia coli; Escherichia coli, ATCC25922, E. coli ATCC 25922, read-out: MIC) | MIC (Escherichia coli; Escherichia coli, E. coli AR0077, read-out: MIC) | MIC (Escherichia coli; Escherichia coli, E. coli AR0086, read-out: MIC) | MIC (Escherichia coli; Escherichia coli, E. coli ELZ 4017, read-out: MIC) | MIC (Escherichia coli; Escherichia coli, E. coli ELZ 4072, read-out: MIC)
32 µg/mL: solubility (Aqueous solubility limit)
fared poorly: reduction in bacterial burden (E. coli AR0349 [1]) | mice with septic infection rescued (survival) (E. coli AR0349 [2])
>32 µg/mL: MIC (Escherichia coli; E. coli AR-0349 (colistin-resistant clinical isolate)) | MIC (Escherichia coli; E. coli AR-0549)
1 µg/mL: MIC (Escherichia coli; Escherichia coli, E. coli ΔrfaC JW3596 (permeability mutant))

Reference: US20250051300A1, “GRAM-NEGATIVE SPECIFIC ANTIBIOTICS SPARING EFFECT ON GUT MICROBIOME” (THE BOARD OF TRUSTEES OF THE UNIVERSITY OF ILLINOIS, priority 2021, published 2025)
